How the values were obtained:
[1] = biological target: T1, eIF2B (Mus musculus, UniProt Q61749+Q99LD9); assay: GEF assay, Bodipy-FL-GDP release from eIF2, fluorescence; assay type: biochemical; conditions: activator; MEF lysate 0.1 mg/mL; 25 nM Bodipy-FL-GDP-loaded eIF2; 3 nM phospho-eIF2; 0.1 mM GDP; 25°C; homozygous R191H MEF lysate
T1 construct: gene Eif2b2; native endogenous complex in lysate of mouse embryonic fibroblasts; decamer of five subunits; with Translation initiation factor eIF2B subunit alpha; Translation initiation factor eIF2B subunit gamma; Translation initiation factor eIF2B subunit epsilon
T1 sequence (Q99LD9 whole entry): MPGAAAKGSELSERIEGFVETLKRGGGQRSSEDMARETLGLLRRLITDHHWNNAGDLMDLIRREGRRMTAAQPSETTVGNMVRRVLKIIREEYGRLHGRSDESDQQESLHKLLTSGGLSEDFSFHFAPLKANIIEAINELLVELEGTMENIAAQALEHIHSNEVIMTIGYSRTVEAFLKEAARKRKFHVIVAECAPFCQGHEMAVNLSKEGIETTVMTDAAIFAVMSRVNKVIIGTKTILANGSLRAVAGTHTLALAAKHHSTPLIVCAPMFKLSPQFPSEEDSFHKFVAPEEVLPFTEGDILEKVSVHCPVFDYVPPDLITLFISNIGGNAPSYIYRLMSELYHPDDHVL
T1 sequence (Q61749 2-524): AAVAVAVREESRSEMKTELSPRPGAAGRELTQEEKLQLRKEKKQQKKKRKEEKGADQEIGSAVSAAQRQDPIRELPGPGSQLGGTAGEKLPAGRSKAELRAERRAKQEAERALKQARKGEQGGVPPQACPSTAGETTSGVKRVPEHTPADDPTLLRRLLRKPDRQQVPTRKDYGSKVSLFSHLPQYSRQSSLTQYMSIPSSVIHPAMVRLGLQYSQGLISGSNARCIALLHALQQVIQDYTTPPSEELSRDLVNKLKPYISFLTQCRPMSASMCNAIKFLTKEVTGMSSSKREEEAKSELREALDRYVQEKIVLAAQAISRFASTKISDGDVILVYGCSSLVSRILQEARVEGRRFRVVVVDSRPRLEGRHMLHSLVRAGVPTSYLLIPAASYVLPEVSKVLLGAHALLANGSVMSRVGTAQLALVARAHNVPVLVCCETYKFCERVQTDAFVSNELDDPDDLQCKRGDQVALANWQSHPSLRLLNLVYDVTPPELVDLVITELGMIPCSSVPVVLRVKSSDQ
T1 sequence (Q99LC8 whole entry partner): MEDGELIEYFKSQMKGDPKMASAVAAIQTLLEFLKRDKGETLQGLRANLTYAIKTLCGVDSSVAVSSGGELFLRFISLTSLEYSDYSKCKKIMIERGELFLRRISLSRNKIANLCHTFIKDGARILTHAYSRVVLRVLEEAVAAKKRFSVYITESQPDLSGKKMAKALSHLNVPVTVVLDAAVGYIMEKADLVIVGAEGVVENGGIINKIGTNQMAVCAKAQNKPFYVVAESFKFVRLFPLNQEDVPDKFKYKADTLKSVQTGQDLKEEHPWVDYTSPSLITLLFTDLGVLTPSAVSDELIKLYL
T1 sequence (B1AUN2 1-452 partner): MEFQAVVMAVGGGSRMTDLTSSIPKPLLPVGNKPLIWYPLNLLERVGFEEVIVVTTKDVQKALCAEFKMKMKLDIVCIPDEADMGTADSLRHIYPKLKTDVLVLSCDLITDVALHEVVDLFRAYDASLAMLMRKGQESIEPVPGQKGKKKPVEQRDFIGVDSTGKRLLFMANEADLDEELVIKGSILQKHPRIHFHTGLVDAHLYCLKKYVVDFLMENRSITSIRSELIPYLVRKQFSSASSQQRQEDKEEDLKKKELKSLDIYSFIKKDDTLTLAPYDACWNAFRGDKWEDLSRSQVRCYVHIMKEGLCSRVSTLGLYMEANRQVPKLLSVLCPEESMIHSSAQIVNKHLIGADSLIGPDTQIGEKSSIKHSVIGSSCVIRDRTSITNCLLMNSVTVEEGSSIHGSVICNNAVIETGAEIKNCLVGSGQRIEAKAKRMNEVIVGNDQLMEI
T1 sequence (Q8CHW4 whole entry R191H partner): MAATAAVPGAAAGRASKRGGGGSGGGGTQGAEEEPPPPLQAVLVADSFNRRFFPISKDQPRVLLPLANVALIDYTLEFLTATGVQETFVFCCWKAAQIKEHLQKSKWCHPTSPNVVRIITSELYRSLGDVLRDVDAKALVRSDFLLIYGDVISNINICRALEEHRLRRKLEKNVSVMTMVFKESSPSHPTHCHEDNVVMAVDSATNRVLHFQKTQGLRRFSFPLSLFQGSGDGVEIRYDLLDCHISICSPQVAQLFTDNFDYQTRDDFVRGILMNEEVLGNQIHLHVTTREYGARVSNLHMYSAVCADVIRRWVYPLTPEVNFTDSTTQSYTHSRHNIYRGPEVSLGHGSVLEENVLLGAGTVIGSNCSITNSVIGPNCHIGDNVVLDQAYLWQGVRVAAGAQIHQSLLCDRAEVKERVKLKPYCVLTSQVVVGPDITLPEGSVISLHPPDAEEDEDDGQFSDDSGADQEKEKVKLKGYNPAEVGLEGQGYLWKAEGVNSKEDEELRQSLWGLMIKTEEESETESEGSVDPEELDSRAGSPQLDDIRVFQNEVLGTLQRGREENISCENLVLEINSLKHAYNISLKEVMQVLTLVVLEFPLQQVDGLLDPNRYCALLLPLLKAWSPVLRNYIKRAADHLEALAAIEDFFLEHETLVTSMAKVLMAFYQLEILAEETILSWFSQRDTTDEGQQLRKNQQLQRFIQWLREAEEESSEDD

[2] = biological target: T2, b2 (h) (Homo sapiens, UniProt P07550); assay: biochemical; set-up: CEREP panel radioligand binding displacement, % inhibition of control specific binding by 10 uM 2BAct; conditions: Type=Agonist radioligand; read-out: % inhibition of Control specific binding
T2 construct: gene ADRB2
Method: (§1) Supplementary file elife-42940-supp1.xlsx: Supplementary file 1. (A) Binding of 2BAct at 10 μM to the CEREP panel of receptors/enzymes/ion channels. Compound binding was calculated as a % inhibition of the binding of a radioactively labeled ligand specific for each target. Results showing inhibition or stimulation higher than 50% are considered to represent significant effects of the test compound. (B) Pharmacokinetic data from 2BAct dosing in mice. (C) GO Biological Processes identified by enrichment analysis of RNA-seq data. (D) List of genes used for enrichment analysis of scRNA-seq data.

[3] = biological target: T3, k (KOP) (Rattus norvegicus, UniProt P34975); assay: biochemical; set-up: CEREP panel radioligand binding displacement, % inhibition of control specific binding by 10 uM 2BAct; conditions: Type=Agonist radioligand; read-out: % inhibition of Control specific binding
T3 construct: gene Oprk1
Method: as §1

[4] = biological target: T4, MT2 (ML1B) (h) (Homo sapiens, UniProt P49286); assay: biochemical; set-up: CEREP panel radioligand binding displacement, % inhibition of control specific binding by 10 uM 2BAct; conditions: Type=Agonist radioligand; read-out: % inhibition of Control specific binding
T4 construct: gene MTNR1B
T4 sequence (P49286 whole entry): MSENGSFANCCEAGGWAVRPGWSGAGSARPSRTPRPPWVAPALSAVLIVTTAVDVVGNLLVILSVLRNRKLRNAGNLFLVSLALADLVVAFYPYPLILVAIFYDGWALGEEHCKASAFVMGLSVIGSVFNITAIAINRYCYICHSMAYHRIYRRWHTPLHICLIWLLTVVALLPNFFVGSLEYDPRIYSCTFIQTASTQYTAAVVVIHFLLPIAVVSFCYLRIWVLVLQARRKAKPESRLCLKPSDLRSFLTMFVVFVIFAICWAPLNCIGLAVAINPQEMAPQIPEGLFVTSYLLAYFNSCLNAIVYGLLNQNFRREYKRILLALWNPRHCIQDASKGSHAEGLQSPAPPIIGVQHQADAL
Method: as §1

[5] = biological target: T5, 5-HT4E (h) (Homo sapiens, UniProt Q13639); assay: biochemical; set-up: CEREP panel radioligand binding displacement, % inhibition of control specific binding by 10 uM 2BAct; conditions: Type=Antagonist radioligand; read-out: % inhibition of Control specific binding
T5 construct: gene HTR4; isoform 4E
T5 sequence (Q13639 whole entry, canonical isoform): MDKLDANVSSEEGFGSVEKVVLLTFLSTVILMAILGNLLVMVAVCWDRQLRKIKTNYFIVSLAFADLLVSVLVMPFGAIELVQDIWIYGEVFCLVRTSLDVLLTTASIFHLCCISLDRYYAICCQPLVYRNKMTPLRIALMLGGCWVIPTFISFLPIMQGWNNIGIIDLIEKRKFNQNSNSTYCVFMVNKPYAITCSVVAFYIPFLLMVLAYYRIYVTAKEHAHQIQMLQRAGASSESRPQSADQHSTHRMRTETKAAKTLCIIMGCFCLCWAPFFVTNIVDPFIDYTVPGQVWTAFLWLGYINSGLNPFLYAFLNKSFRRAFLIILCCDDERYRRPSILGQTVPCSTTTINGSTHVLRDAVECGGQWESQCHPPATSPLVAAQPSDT
Method: as §1

[6] = biological target: T6, Estrogen ER alpha (h) (Homo sapiens, UniProt P03372); assay: biochemical; set-up: CEREP panel radioligand binding displacement, % inhibition of control specific binding by 10 uM 2BAct; conditions: Type=Agonist radioligand; read-out: % inhibition of Control specific binding
T6 construct: gene ESR1
T6 sequence (P03372 whole entry): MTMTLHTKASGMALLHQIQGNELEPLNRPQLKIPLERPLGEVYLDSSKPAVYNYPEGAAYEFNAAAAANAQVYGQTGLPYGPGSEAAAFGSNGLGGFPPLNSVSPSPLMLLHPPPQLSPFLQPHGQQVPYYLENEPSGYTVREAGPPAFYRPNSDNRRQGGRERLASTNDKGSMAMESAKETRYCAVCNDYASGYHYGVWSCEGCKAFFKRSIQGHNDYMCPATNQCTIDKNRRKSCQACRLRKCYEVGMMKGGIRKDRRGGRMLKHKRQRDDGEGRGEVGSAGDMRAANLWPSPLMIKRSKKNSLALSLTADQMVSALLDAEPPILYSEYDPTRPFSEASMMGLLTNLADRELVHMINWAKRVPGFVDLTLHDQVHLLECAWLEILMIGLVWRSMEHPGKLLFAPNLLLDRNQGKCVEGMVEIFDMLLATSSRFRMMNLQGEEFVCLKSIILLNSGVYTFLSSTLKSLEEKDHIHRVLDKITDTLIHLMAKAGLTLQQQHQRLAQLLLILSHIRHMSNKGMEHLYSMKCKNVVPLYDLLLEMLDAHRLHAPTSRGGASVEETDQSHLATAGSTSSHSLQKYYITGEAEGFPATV
Method: as §1

[7] = biological target: T7, CB2 (h) (Homo sapiens, UniProt P34972); assay: biochemical; set-up: CEREP panel radioligand binding displacement, % inhibition of control specific binding by 10 uM 2BAct; conditions: Type=Agonist radioligand; read-out: % inhibition of Control specific binding
T7 construct: gene CNR2
Method: as §1

[8] = biological target: T8, 5-HT3 (h) (Homo sapiens, UniProt P46098); assay: biochemical; set-up: CEREP panel radioligand binding displacement, % inhibition of control specific binding by 10 uM 2BAct; conditions: Type=Antagonist radioligand; read-out: % inhibition of Control specific binding
T8 construct: gene HTR3A
Method: as §1

[9] = biological target: T9, CGRP (h) (Homo sapiens, UniProt Q16602); assay: biochemical; set-up: CEREP panel radioligand binding displacement, % inhibition of control specific binding by 10 uM 2BAct; conditions: Type=Agonist radioligand; read-out: % inhibition of Control specific binding
T9 construct: gene CALCRL
Method: as §1

[10] = biological target: T10, m (MOP) (h) (Homo sapiens, UniProt P35372); assay: biochemical; set-up: CEREP panel radioligand binding displacement, % inhibition of control specific binding by 10 uM 2BAct; conditions: Type=Agonist radioligand; read-out: % inhibition of Control specific binding
T10 construct: gene OPRM1
T10 sequence (P35372 whole entry): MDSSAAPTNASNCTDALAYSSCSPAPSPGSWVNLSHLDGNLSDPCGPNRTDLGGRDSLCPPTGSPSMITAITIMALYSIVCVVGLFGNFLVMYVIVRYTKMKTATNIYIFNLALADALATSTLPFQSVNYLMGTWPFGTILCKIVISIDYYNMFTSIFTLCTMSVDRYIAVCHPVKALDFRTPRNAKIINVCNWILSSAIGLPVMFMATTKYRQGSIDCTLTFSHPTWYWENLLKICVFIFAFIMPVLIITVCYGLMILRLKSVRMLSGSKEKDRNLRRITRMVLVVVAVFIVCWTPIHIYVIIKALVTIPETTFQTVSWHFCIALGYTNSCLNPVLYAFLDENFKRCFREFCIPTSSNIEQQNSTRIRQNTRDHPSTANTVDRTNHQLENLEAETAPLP
Method: as §1

[11] = biological target: PPARg (h) (Homo sapiens, UniProt P37231); assay: biochemical; set-up: CEREP panel radioligand binding displacement, % inhibition of control specific binding by 10 uM 2BAct; conditions: Type=Agonist radioligand; read-out: % inhibition of Control specific binding
Method: as §1

[12] = biological target: T11, D2S (h) (Homo sapiens, UniProt P14416); assay: biochemical; set-up: CEREP panel radioligand binding displacement, % inhibition of control specific binding by 10 uM 2BAct; conditions: Type=Antagonist radioligand; read-out: % inhibition of Control specific binding
T11 construct: gene DRD2; short isoform (D2S)
T11 sequence (P14416 whole entry, canonical isoform): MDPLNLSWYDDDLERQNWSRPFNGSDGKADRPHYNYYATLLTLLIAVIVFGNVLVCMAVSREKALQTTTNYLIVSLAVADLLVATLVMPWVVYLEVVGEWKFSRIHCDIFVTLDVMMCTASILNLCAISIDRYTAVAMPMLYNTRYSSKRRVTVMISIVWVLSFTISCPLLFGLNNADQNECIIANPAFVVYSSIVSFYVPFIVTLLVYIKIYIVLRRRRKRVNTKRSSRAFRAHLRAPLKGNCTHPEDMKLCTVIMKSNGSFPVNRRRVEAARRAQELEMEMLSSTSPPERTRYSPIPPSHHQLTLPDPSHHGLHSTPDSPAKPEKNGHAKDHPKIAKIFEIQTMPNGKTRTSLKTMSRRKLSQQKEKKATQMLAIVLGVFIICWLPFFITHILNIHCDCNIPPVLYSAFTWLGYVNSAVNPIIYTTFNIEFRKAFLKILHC
Method: as §1

[13] = biological target: T12, AT2 (h) (Homo sapiens, UniProt P50052); assay: biochemical; set-up: CEREP panel radioligand binding displacement, % inhibition of control specific binding by 10 uM 2BAct; conditions: Type=Agonist radioligand; read-out: % inhibition of Control specific binding
T12 construct: gene AGTR2
Method: as §1

[14] = biological target: T13, A2a (h) (Homo sapiens, UniProt P29274); assay: biochemical; set-up: CEREP panel radioligand binding displacement, % inhibition of control specific binding by 10 uM 2BAct; conditions: Type=Agonist radioligand; read-out: % inhibition of Control specific binding
T13 construct: gene ADORA2A
T13 sequence (P29274 whole entry): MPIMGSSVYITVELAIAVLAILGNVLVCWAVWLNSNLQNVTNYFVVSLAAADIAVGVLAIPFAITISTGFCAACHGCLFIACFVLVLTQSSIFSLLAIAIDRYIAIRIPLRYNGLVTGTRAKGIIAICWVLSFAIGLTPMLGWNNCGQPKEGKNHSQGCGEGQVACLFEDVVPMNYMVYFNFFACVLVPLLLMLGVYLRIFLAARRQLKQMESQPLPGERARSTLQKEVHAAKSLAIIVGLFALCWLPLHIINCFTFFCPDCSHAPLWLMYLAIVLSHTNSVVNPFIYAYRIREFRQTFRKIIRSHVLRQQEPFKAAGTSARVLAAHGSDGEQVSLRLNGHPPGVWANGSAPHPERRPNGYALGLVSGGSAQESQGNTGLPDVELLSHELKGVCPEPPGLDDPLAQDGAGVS
Method: as §1

[15] = biological target: T14, 5-HT transporter (h) (Homo sapiens, UniProt P31645); assay: biochemical; set-up: CEREP panel radioligand binding displacement, % inhibition of control specific binding by 10 uM 2BAct; conditions: Type=Antagonist radioligand; read-out: % inhibition of Control specific binding
T14 construct: gene SLC6A4
Method: as §1

[16] = biological target: T15, H2 (h) (Homo sapiens, UniProt P25021); assay: biochemical; set-up: CEREP panel radioligand binding displacement, % inhibition of control specific binding by 10 uM 2BAct; conditions: Type=Antagonist radioligand; read-out: % inhibition of Control specific binding
T15 construct: gene HRH2
Method: as §1

With `O=C(COc1ccc(Cl)c(F)c1)NC12CC(NC(=O)c3cnc(C(F)F)cn3)(C1)C2` [2BAct] the EC50 [1] was 7.3 nM, the inhibition at 10 µM [2] was 4.4% and the inhibition at 10 µM [3] was 2.1%. The inhibition at 10 µM [4] was -2%, the inhibition at 10 µM [5] was 8.2% and the inhibition at 10 µM [6] was -7.7%. The inhibition at 10 µM [7] was 2%, the inhibition at 10 µM [8] was 9.2% and the inhibition at 10 µM [9] was -4.8%. For the same molecule, the inhibition at 10 µM [10] was 3%, the inhibition at 10 µM [11] was 19% and the inhibition at 10 µM [12] was 1.3%. For the same molecule, the inhibition at 10 µM [13] was 0.2%, the inhibition at 10 µM [14] was 24.8% and the inhibition at 10 µM [15] was 7.9%. The inhibition at 10 µM [16] was -17.4%.

Reference: paper PMC6326728, “eIF2B activator prevents neurological defects caused by a chronic integrated stress response” (eLife, 2019)
